Experimental data taken from patent EP0479665A2, “1,4-Dihydropyridine derivatives, method for preparing the same and use thereof” (TEIKOKU CHEMICAL INDUSTRIES CO., LTD., priority 1990, dated 1992).
Where a name gives a salt, the structure may show the parent alone. Read-outs that look alike come from different tables or passages of the source. Marks after values point to notes of the source that are not given here.

Tests used:
[1] = test system: spontaneously hypertensive rats; assay: Antihypertensive action, tail-cuff method, single oral dose; type: in vivo; details: difference in blood pressure before and after administration; 10 mg/kg oral; an hour after the administration; two rats
Procedure: Measurement was conducted an hour after the administration. […] The antihypertensive action of each of […] nicardipine was also measured for comparison.

thoracic aorta = assay: Calcium antagonism: relaxation of thoracic aorta helical strips contracted with hyperpotassium solution; type: cell-based, rabbit; details: Oryctolagus cuniculus; concentration for 50 % relaxation; hyperpotassium solution (50 mM); relaxation with 10^-4 M papaverine defined as 100 %; read-out: Measured Value (IC50)
Procedure: A thoracic aorta was removed from a rabbit to obtain a helical strips (width: 3 mm; length: 30 mm). This strip was suspended under a load of 0.5 g in a Magnus tube filled with Krebs-Henseleit solution. Subsequently, the Krebs-Henseleit solution was replaced with hyperpotassium solution (50 mM) to contract the strip. The strip was then left to stand until the contraction was stabilized. Thereafter, the compounds obtained in Examples 18, 19 and 20 and dissolved in ethanol-distilled water were added to the strip.
The concentration (IC50) of each compound required for obtaining relaxation of 50 % was measured. It is to be noted that the relaxation of a strip treated with 10-^4M papaverine was defined to 100 %.

in vivo = details: oral, after a fast, 4-week old mouse, read-out: Toxicity (LD50)
Procedure: After a fast, a ddy-mouse (4-week old) was orally given a solution obtained by dissolving and/or suspending the compound in each Example 18, 19 and 20 in dimethylsulfoxide (DMSO) or carboxymethylcellulose (CMC). The value of LD50 was calculated from the mortality.

[2] = test system: spontaneously hypertensive rats; assay: Antihypertensive action regarding administration amount, tail-cuff method; type: in vivo; details: for ED (40 mmHg decrease): Rattus norvegicus, read-out: ED-40 mmHg; for T1/2(dose): time for recovery to 50 % of maximal effect (index of persistence)
Procedure: Ten spontaneously hypertensive rats (10 - 20 week old) were used for this test. Blood pressure was measured in accordance with tail-cuff method by employing a blood pressure gauge for small animals UR-1000 (manufactured by Ueda Works, Ltd., Japan). […] The amount of each compound required for lowering the blood pressure of 40 mmHg decrease in blood pressure was calculated from the relationship between the administration amount and the blood pressure after adiministration (lowermost blood pressure). This amount was defined as ED-40 mmHg for serving as an index of antihypertensive action. Tz was shown as the time required for recovery to 50 % of maximal […]. This value was used for an index of persistence.

[3] = oral amount for a 40 mmHg decrease in blood pressure, suspended in 0.5 % carboxymethylcellulose, ten rats

Compound	Antihypertensive Action [1] [mmHg]	also measured
COC(=O)C1=C(C)NC(C)=C(C(=O)OCC2(CN(C)Cc3ccccc3Cl)CCCCC2)C1c1cccc([N+](=O)[O-])c1 (racemic) [Example 16]	-120	
COC(=O)C1=C(C)NC(C)=C(C(=O)OCC2(CN(C)Cc3ccccc3)CCCCC2)C1c1cc([N+](=O)[O-])ccc1F (racemic) [Example 8]	-140	
COC(=O)C1=C(C)NC(C)=C(C(=O)OCC2(CN(C)Cc3ccccc3)CCCCC2)C1c1cccc([N+](=O)[O-])c1.Cl (single isomer, unassigned; (+)) [Example 18, (+)-1,4-dihydro-2,6-dimethyl-4-(3'-nitro-phenyl)-3,5-pyridinedicarboxylic acid 1-(N-benzyl-N-methylaminomethyl)cyclohexylmethyl methyl ester hydrochloride]	-96	IC50 (thoracic aorta): 100 nM; LD50 (in vivo; medium DMSO): 130 mg/kg; ED (40 mmHg decrease) [2, 3]: 0.7 mg/kg; T1/2(dose) ([2]; oral dose 3 mg/kg): >6.0 hr(3 mg/kg)*
CCN(CC)CC1(COC(=O)C2=C(C)NC(C)=C(C(=O)OC)C2c2cccc([N+](=O)[O-])c2)CCCCC1 (racemic) [Example 13]	-108	
COC(=O)C1=C(C)NC(C)=C(C(=O)OC)C1c1ccccc1[N+](=O)[O-] [Nifedipine, nifedipine, reference compound]	-58	IC50 (thoracic aorta): 29 nM; ED (40 mmHg decrease) ([2]; po): 3.3 mg/kg
COC(=O)C1=C(C)NC(C)=C(C(=O)OCC2(CN(C)Cc3ccc(Cl)cc3)CCCCC2)C1c1cccc([N+](=O)[O-])c1 (single isomer, unassigned) [Example 22]	-122	
CC1=C(C(=O)OCC2(CN(C)C)CCCCC2)C(c2cccc([N+](=O)[O-])c2)C(C(=O)OC(C)C)=C(C)N1 (racemic) [Example 5]	-68	
COC(=O)C1=C(C)NC(C)=C(C(=O)OCC2(CN3CCOCC3)CCCCC2)C1c1cccc([N+](=O)[O-])c1 (single isomer, unassigned) [Example 23]	-87	
COC(=O)C1=C(C)NC(C)=C(C(=O)OCC2(CN(C)C)CCCCC2)C1c1cccc([N+](=O)[O-])c1 (single isomer, unassigned) [Example 21]	-53	
CCN(Cc1ccccc1)CC1(COC(=O)C2=C(C)NC(C)=C(C(=O)OC)C2c2cccc([N+](=O)[O-])c2)CCCCC1 (single isomer, unassigned) [Example 27]	-109	
COC(=O)C1=C(C)NC(C)=C(C(=O)OCC2(CN3CCN(C(c4ccccc4)c4ccccc4)CC3)CCCCC2)C1c1cccc([N+](=O)[O-])c1 (racemic) [Example 17]	-112	
CCOC(=O)C1=C(C)NC(C)=C(C(=O)OCC2(CN(C)Cc3ccccc3)CCCCC2)C1c1cccc([N+](=O)[O-])c1 (racemic) [Example 6, 1,4-dihydro-2,6-dimethyl-4-(3'-nitrophenyl)-3,5-pyridinedicarboxylic acid 1-(N-benzyl-N-methylaminomethyl)cyclohexylmethyl ethyl ester]	-110	
COC(=O)C1=C(C)NC(C)=C(C(=O)OCC2(CN(C)Cc3ccccc3)CCCCC2)C1c1cccc([N+](=O)[O-])c1.Cl (racemic) [Example 1, 1,4-dihydro-2,6-dimethyl-4-(3'-nitrophenyl)-3,5-pyridinedicarboxylic acid 1-(N-benzyl-N-methylaminomethyl)cyclohexylmethyl methyl ester hydrochloride]	-131	
COC(=O)C1=C(C)NC(C)=C(C(=O)OCC2(CN3CCN(Cc4ccccc4)CC3)CCCCC2)C1c1cccc([N+](=O)[O-])c1 (racemic) [Example 10]	-110	
COC(=O)C1=C(C)NC(C)=C(C(=O)OCC2(CN3CCN(C)CC3)CCCCC2)C1c1cccc([N+](=O)[O-])c1 (single isomer, unassigned) [Example 24]	-79	
COC(=O)C1=C(C)NC(C)=C(C(=O)OCC2(CN3CCN(c4ccccc4)CC3)CCCCC2)C1c1cccc([N+](=O)[O-])c1 (racemic) [Example 3, 1,4-dihydro-2,6-dimethyl-4-(3'-nitrophenyl)-3,5-pyridinedicarboxylic acid methyl 1-(4-phenylpiperazinylmethyl)cyclohexylmethyl ester dihydrochloride.1/2 acetone adduct]	-109	
1,4-dihydro-2,6-dimethyl-4-(3'-nitrophenyl)-3,5-pyridinedicarboxylic acid methyl (1-piperidinylmethylcyclohexyl)methyl ester hydrochloride [Example 2]	-89	
COC(=O)C1=C(C)NC(C)=C(C(=O)OCCN(C)Cc2ccccc2)C1c1cccc([N+](=O)[O-])c1 (stereo not drawn) [Nicardipine, nicardipine, reference compound]	-77	IC50 (thoracic aorta): 6.8 nM; LD50 (in vivo; medium DMSO): 190 mg/kg; ED (40 mmHg decrease) [2, 3]: 2.6 mg/kg; T1/2(dose) ([2]; oral dose 10 mg/kg): 4.5 hr(10mg/kg)*
COC(=O)C1=C(C)NC(C)=C(C(=O)OCC2(CN(C)Cc3ccc(F)cc3)CCCCC2)C1c1cccc([N+](=O)[O-])c1 (racemic) [Example 15]	-114	
COC(=O)C1=C(C)NC(C)=C(C(=O)OCC2(CN3CCCCC3)CCCCC2)C1c1cccc([N+](=O)[O-])c1 (single isomer, unassigned; (+)) [Example 19, (+)-1,4-dihydro-2,6-dimethyl-4-(3'-nitro-phenyl)-3,5-pyridinedicarboxylic acid methyl (1-piperidinylmethylcyclohexyl)methyl ester hydrochloride]	-75	IC50 (thoracic aorta): 1.5 nM; LD50 (in vivo; medium DMSO): 100 mg/kg; ED (40 mmHg decrease) [2, 3]: 0.5 mg/kg; T1/2(dose) ([2]; oral dose 3 mg/kg): >6.0 hr(3 mg/kg)*
COC(=O)C1=C(C)NC(C)=C(C(=O)OCC2(CN3CCOCC3)CCCCC2)C1c1cccc([N+](=O)[O-])c1 (racemic) [Example 12]	-113	
COC(=O)C1=C(C)NC(C)=C(C(=O)OCCN2CCN(C(c3ccccc3)c3ccccc3)CC2)C1c1cccc([N+](=O)[O-])c1 (stereo not drawn) [Manidipine, reference compound]		IC50 (thoracic aorta): 27 nM; LD50 (in vivo; medium CMC): 200 mg/kg; ED (40 mmHg decrease) [2, 3]: 1.7 mg/kg; T1/2(dose) ([2]; oral dose 3 mg/kg): 5.0 hr(3 mg/kg)*
COC(=O)C1=C(C)NC(C)=C(C(=O)OCC2(CN3CCN(Cc4ccccc4)CC3)CCCCC2)C1c1cccc([N+](=O)[O-])c1 (single isomer, unassigned) [Example 25]	-98	
COC(=O)C1=C(C)NC(C)=C(C(=O)OCC2(CN(C)Cc3ccc(F)cc3)CCCCC2)C1c1cccc([N+](=O)[O-])c1 (single isomer, unassigned) [Example 26]	-111	
COC(=O)C1=C(C)NC(C)=C(C(=O)OCC2(CN3CCN(C)CC3)CCCCC2)C1c1cccc([N+](=O)[O-])c1 (racemic) [Example 11]	-74	
CCOC(=O)C1=C(C)NC(C)=C(C(=O)OCC2(CN(C)C)CCCCC2)C1c1cccc([N+](=O)[O-])c1 (racemic) [Example 7]	-61	
COC(=O)C1=C(C)NC(C)=C(C(=O)OCC2(CN3CCN(c4ccccc4)CC3)CCCCC2)C1c1cccc([N+](=O)[O-])c1 (single isomer, unassigned; (+)) [Example 20, (+)-1,4-dihydro-2,6-dimethyl-4-(3'-nitro-phenyl)-3,5-pyridinedicarboxylic acid methyl 1-(4-phenylpiperazinylmethyl)cyclohexylmethyl ester dihydrochloride]	-129	IC50 (thoracic aorta): 420 nM; LD50 (in vivo; medium CMC): 290 mg/kg; ED (40 mmHg decrease) [2, 3]: 0.3 mg/kg; T1/2(dose) ([2]; oral dose 1 mg/kg): >6.0 hr(1 mg/kg)*
